Values quoted from earlier work as cited in patent US20120252862A1, “Dissolvable Film Strip Comprising Natural Components” (YEDITEPE UNIVERSITES, priority 2009, published 2012).

Conditions: single oral dose

## O=C(O[C@@H]1Cc2c(O)cc(O)cc2O[C@@H]1c1cc(O)c(O)c(O)c1)c1cc(O)c(O)c(O)c1 [EGCG, epigallocatechin gallate]
  Dose reported safe to be applied: up to 1600 mg
